Laboratory results: the supplement of paper PMC13207355

What was measured:
Conditions in all cases: exposure time: 72 h
E28 [1] = patient-derived glioblastoma stem cells of classical subtype; assay: surviving fraction (nuclei count normalised to DMSO); higher = more cells surviving (less toxic)
E31 [2] = patient-derived glioblastoma stem cells of proneural subtype; assay: as above
E21 [3] = patient-derived glioblastoma stem cells of mesenchymal subtype; assay: as above
E57 [4] = patient-derived glioblastoma stem cells of mesenchymal subtype; assay: as above
FT3469 [5] = normal neural stem cell line; assay: as above
E34 [6] = patient-derived glioblastoma stem cells of proneural subtype; assay: as above
E13 [7] = patient-derived glioblastoma stem cells of classical subtype; assay: as above
E28 [8] = assay: phenotypic distance (Euclidean, principal components) from DMSO controls (arbitrary units); higher = stronger morphological change
E31 [9] = assay: as above
E21 [10] = assay: as above
E57 [11] = assay: as above
FT3469 [12] = assay: as above
E34 [13] = assay: as above
E13 [14] = assay: as above
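Throughout, for phenotypic distance (Euclidean, principal components) from DMSO controls: cell Painting imaging in 384-well plates, CellProfiler features reduced to at least 20 principal components, Euclidean distance versus same-plate DMSO vehicle wells (0.1% v/v), median over six images per well.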
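Throughout, for surviving fraction (nuclei count normalised to DMSO): nuclei counted by high-content imaging of Hoechst-stained cells in laminin-coated 384-well plates, relative to 0.1% DMSO vehicle wells, with staurosporine as cell-death control.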

Compound: C[C@@H](O)[C@H]1C(=O)N2C(C(=O)O)=C(S[C@@H]3CN[C@H](C(=O)N(C)C)C3)[C@H](C)[C@H]12 [Meropenem]
- surviving fraction (E28 [1]; 4.11523 nM): 1.11
- surviving fraction (E28 [1]; 12.34567901 nM): 1.17
- surviving fraction (E28 [1]; 37.037 nM): 1.12
- surviving fraction (E28 [1]; 111.1111111 nM): 1.08
- surviving fraction (E28 [1]; 333.333 nM): 1.29
- surviving fraction (E28 [1]; 1000 nM): 1.23
- surviving fraction (E28 [1]; 3000 nM): 1.03
- surviving fraction (E31 [2]; 4.11523 nM): 1.13
- surviving fraction (E31 [2]; 12.34567901 nM): 1.1
- surviving fraction (E31 [2]; 37.037 nM): 1.15
- surviving fraction (E31 [2]; 111.1111111 nM): 0.926
- surviving fraction (E31 [2]; 333.333 nM): 1.17
- surviving fraction (E31 [2]; 1000 nM): 1.01
- surviving fraction (E31 [2]; 3000 nM): 1.16
- surviving fraction (E21 [3]; 4.11523 nM): 1.15
- surviving fraction (E21 [3]; 12.34567901 nM): 1.14
- surviving fraction (E21 [3]; 37.037 nM): 1.07
- surviving fraction (E21 [3]; 111.1111111 nM): 1.11
- surviving fraction (E21 [3]; 333.333 nM): 1.02
- surviving fraction (E21 [3]; 1000 nM): 1.16
- surviving fraction (E21 [3]; 3000 nM): 1.06
- surviving fraction (E57 [4]; 4.11523 nM): 1
- surviving fraction (E57 [4]; 12.34567901 nM): 1.01
- surviving fraction (E57 [4]; 37.037 nM): 1.01
- surviving fraction (E57 [4]; 111.1111111 nM): 1.03
- surviving fraction (E57 [4]; 333.333 nM): 1.01
- surviving fraction (E57 [4]; 1000 nM): 1.06
- surviving fraction (E57 [4]; 3000 nM): 0.989
- surviving fraction (FT3469 [5]; 4.11523 nM): 1.24
- surviving fraction (FT3469 [5]; 12.34567901 nM): 1.17
- surviving fraction (FT3469 [5]; 37.037 nM): 1.17
- surviving fraction (FT3469 [5]; 111.1111111 nM): 1.1
- surviving fraction (FT3469 [5]; 333.333 nM): 1.28
- surviving fraction (FT3469 [5]; 1000 nM): 0.993
- surviving fraction (FT3469 [5]; 3000 nM): 0.866
- surviving fraction (E34 [6]; 4.11523 nM): 1.07
- surviving fraction (E34 [6]; 12.34567901 nM): 1.03
- surviving fraction (E34 [6]; 37.037 nM): 1.11
- surviving fraction (E34 [6]; 111.1111111 nM): 1.17
- surviving fraction (E34 [6]; 333.333 nM): 1.07
- surviving fraction (E34 [6]; 1000 nM): 0.937
- surviving fraction (E34 [6]; 3000 nM): 1.02
- surviving fraction (E13 [7]; 4.11523 nM): 0.996
- surviving fraction (E13 [7]; 12.34567901 nM): 1.11
- surviving fraction (E13 [7]; 37.037 nM): 0.951
- surviving fraction (E13 [7]; 111.1111111 nM): 1.09
- surviving fraction (E13 [7]; 333.333 nM): 1.05
- surviving fraction (E13 [7]; 1000 nM): 1.31
- surviving fraction (E13 [7]; 3000 nM): 1.17
- phenotypic distance (E28 [8]; 4.11523 nM): 0.51
- phenotypic distance (E28 [8]; 12.34567901 nM): 0.969
- phenotypic distance (E28 [8]; 37.037 nM): 0.452
- phenotypic distance (E28 [8]; 111.1111111 nM): 0.706
- phenotypic distance (E28 [8]; 333.333 nM): 0.645
- phenotypic distance (E28 [8]; 1000 nM): 0.83
- phenotypic distance (E28 [8]; 3000 nM): 0.601
- phenotypic distance (E31 [9]; 4.11523 nM): 0.705
- phenotypic distance (E31 [9]; 12.34567901 nM): 0.703
- phenotypic distance (E31 [9]; 37.037 nM): 0.741
- phenotypic distance (E31 [9]; 111.1111111 nM): 0.746
- phenotypic distance (E31 [9]; 333.333 nM): 0.485
- phenotypic distance (E31 [9]; 1000 nM): 0.528
- phenotypic distance (E31 [9]; 3000 nM): 0.487
- phenotypic distance (E21 [10]; 4.11523 nM): 1.01
- phenotypic distance (E21 [10]; 12.34567901 nM): 1
- phenotypic distance (E21 [10]; 37.037 nM): 0.846
- phenotypic distance (E21 [10]; 111.1111111 nM): 3.57
- phenotypic distance (E21 [10]; 333.333 nM): 0.377
- phenotypic distance (E21 [10]; 1000 nM): 0.695
- phenotypic distance (E21 [10]; 3000 nM): 0.387
- phenotypic distance (E57 [11]; 4.11523 nM): 0.603
- phenotypic distance (E57 [11]; 12.34567901 nM): 0.59
- phenotypic distance (E57 [11]; 37.037 nM): 0.529
- phenotypic distance (E57 [11]; 111.1111111 nM): 0.751
- phenotypic distance (E57 [11]; 333.333 nM): 0.536
- phenotypic distance (E57 [11]; 1000 nM): 0.871
- phenotypic distance (E57 [11]; 3000 nM): 0.419
- phenotypic distance (FT3469 [12]; 4.11523 nM): 0.799
- phenotypic distance (FT3469 [12]; 12.34567901 nM): 1.17
- phenotypic distance (FT3469 [12]; 37.037 nM): 0.764
- phenotypic distance (FT3469 [12]; 111.1111111 nM): 1.09
- phenotypic distance (FT3469 [12]; 333.333 nM): 0.633
- phenotypic distance (FT3469 [12]; 1000 nM): 0.854
- phenotypic distance (FT3469 [12]; 3000 nM): 0.676
- phenotypic distance (E34 [13]; 4.11523 nM): 0.76
- phenotypic distance (E34 [13]; 12.34567901 nM): 0.538
- phenotypic distance (E34 [13]; 37.037 nM): 0.692
- phenotypic distance (E34 [13]; 111.1111111 nM): 0.922
- phenotypic distance (E34 [13]; 333.333 nM): 0.78
- phenotypic distance (E34 [13]; 1000 nM): 0.612
- phenotypic distance (E34 [13]; 3000 nM): 0.538
- phenotypic distance (E13 [14]; 4.11523 nM): 0.447
- phenotypic distance (E13 [14]; 12.34567901 nM): 0.391
- phenotypic distance (E13 [14]; 37.037 nM): 0.465
- phenotypic distance (E13 [14]; 111.1111111 nM): 0.343
- phenotypic distance (E13 [14]; 333.333 nM): 0.428
- phenotypic distance (E13 [14]; 1000 nM): 1.47
- phenotypic distance (E13 [14]; 3000 nM): 0.693
